Laboratory results reported in paper PMC3784060 (Cancer Chemotherapy and Pharmacology, 2013).
Read-outs that look alike come from different tables or passages of the source.

How the values were obtained:
[1] = tested on: acute leukemia (WBC count); conditions: cited from earlier work
[2] = tested on: relapsed/refractory AML and ALL; assay: phase II study in acute leukemia: response, blast/WBC reduction, time to progression; format: in vivo, human
Description: Each cycle lasted 21 days. Patient could continue treatment on the study in the absence of disease progression or unacceptable toxicity. The next cycle of therapy could start if non-hematologic toxicity from previous cycle recovered to ≤grade 1, and dose delay of up to 3 weeks was allowed for recovery. Permanent dose reduction was required for any ≥grade 3 clinically significant non-hematologic adverse event (70 mg/m^2 → 50 mg/m^2; 50 mg/m^2 → 40 mg/m^2; 40 mg/m^2 → 30 mg/m^2; 30 mg/m^2 → discontinue). To allow for continued treatment of subjects whose cytopenias were due to leukemia and not due to drug toxicity, subsequent cycles of treatment were allowed if absolute neutrophil count (ANC) ≥0.5 × 10^9/L or for ANC <0.5 × 10^9/L but no more than 20 % below the baseline pretreatment levels and platelet count ≥20 × 10^9/L or platelets <20 × 10^9/L but no more than 20 % below the baseline pretreatment levels. Anti-emetic prophylaxis including serotonin-receptor antagonist, metoclopramide, or prochloperazine with or without dexamethasone was allowed. […] Dexamethasone 20 mg IV was given early if symptoms of cytokine release syndrome were observed.
Response was assessed by bone marrow (BM) examination on day 21 of cycles 1 and 2, and every 6 weeks thereafter until complete remission or progressive disease (PD). Response was determined according to the revised recommendations of the International Working Group (IWG) for AML [33]. Toxicities were graded according to the National Cancer Institute Common Terminology Criteria for Adverse Events (NCI CTCAE), version 3.0 (http://ctep.cancer.gov/protocolDevelopment/electronic_applications/docs/ctcaev3.pdf). Hematologic and chemistry profiles were monitored on day 1 and 2 of each cycle or until resolution of acute toxicities and subsequently at least once a week or more frequently depending on the individual patient’s needs.
The primary efficacy endpoint of the study was the ORR, including complete remission (CR), CR with incomplete count recovery (CRi), and partial remission.

[3] = AML patients, all treated subjects

## CN1CC[C@H](c2c(O)cc(O)c3c(=O)cc(-c4ccccc4Cl)oc23)[C@H](O)C1 [flavopiridol]
[1]; 1-h bolus for 3 days
  patients with >50 % decrease in WBC count: ~44%
[1]; hybrid schedule for 3 days
  patients with >50 % decrease in WBC count: approximately 83%

## gemtuzumab ozogamicin [Mylotarg (GO), reference compound]
[2]; [3]
  Beta Posterior Mean (Bayes estimate of the response rate): 0.167
  Number of Non-responders: 7
  Number of Responders: 1
  Posterior Probability (This treatment is better): 0.801
[2]; AML patients, all treated subjects, frequentist approach
  Observed Response Rate (%): 12.500%
[2]; all treated AML patients
  Median time to progression, Estimate: 7.57 weeks
  Number of Events (progression): 7
[2]; time to progression, all treated AML patients
  Hazard Ratio, Estimate (Mylotarg/Dinaciclib): 0.71
